Measurements published in US12514832B2, “Methods for using low-dose colchicine after myocardial infarction” (INSTITUT DE CARDIOLOGIE DE MONTREAL, priority 2019, dated 2026).
Like-named read-outs stand apart in the source and are kept apart here.

System: rs6916345 (LINC01108/JARID2, chromosome 6); rs10128117 (SEPHS1, chromosome 10)
Conditions: colchicine treatment arm; for HR, gastrointestinal disorders / coef, gastrointestinal disorders: males + females
[1] = rs10128117 chr 10, EA A vs NEA T
[2] = rs10128117 effect allele A vs T
[3] = rs10906346 effect allele A vs G
[4] = rs11258319 effect allele T vs C
[5] = rs12210439 chr 6, EA A vs NEA G
[6] = rs41291319 effect allele A vs G
[7] = rs41291321 effect allele C vs G
[8] = rs58260827 effect allele CA vs C
[9] = rs61851591 chr 10, EA A vs NEA C
[10] = rs61851591 effect allele A vs C
[11] = rs61851592 chr 10, EA T vs NEA C
[12] = rs61851592 effect allele T vs C
[13] = rs61851593 chr 10, EA C vs NEA T
[14] = rs61851593 effect allele C vs T
[15] = rs61851598 effect allele A vs G
[16] = rs61851599 effect allele T vs C
[17] = rs70993041 chr 6, EA TAA vs NEA T
[18] = rs74795203 chr 10, EA G vs NEA A
[19] = rs74795203 effect allele G vs A
[20] = rs77006996 chr 10, EA T vs NEA C
[21] = rs77006996 effect allele T vs C
[22] = rs117874450 effect allele T vs C
[23] = rs552621122 effect allele A vs ATT

Compound: COc1cc2c(c(OC)c1OC)-c1ccc(OC)c(=O)cc1[C@@H](NC(C)=O)CC2 [Colchicine, colchicine]
- Coefficient, genetic association with gastrointestinal disorders (rs6916345 chr 6, EA G vs NEA A): −0.639
- HR (hazard ratio), genetic association with gastrointestinal disorders (rs6916345 chr 6, EA G vs NEA A): 0.53
- Coefficient, genetic association with gastrointestinal disorders (rs6918045 chr 6, EA T vs NEA C): −0.598
- HR (hazard ratio), genetic association with gastrointestinal disorders (rs6918045 chr 6, EA T vs NEA C): 0.55
- Coefficient, genetic association with gastrointestinal disorders (rs6920905 chr 6, EA C vs NEA T): −0.628
- HR (hazard ratio), genetic association with gastrointestinal disorders (rs6920905 chr 6, EA C vs NEA T): 0.53
- Coefficient, genetic association with gastrointestinal disorders (rs7747013 chr 6, EA G vs NEA A): −0.600
- HR (hazard ratio), genetic association with gastrointestinal disorders (rs7747013 chr 6, EA G vs NEA A): 0.55
- Coefficient, genetic association with gastrointestinal disorders (rs7751771 chr 6, EA C vs NEA T): −0.598
- HR (hazard ratio), genetic association with gastrointestinal disorders (rs7751771 chr 6, EA C vs NEA T): 0.55
- Coefficient, genetic association with gastrointestinal disorders (rs7764937 chr 6, EA C vs NEA G): −0.599
- HR (hazard ratio), genetic association with gastrointestinal disorders (rs7764937 chr 6, EA C vs NEA G): 0.55
- HR, gastrointestinal disorders (rs7894075 effect allele C vs A): 2.4
- coef, gastrointestinal disorders (rs7894075 effect allele C vs A): 0.8903
- HR, gastrointestinal disorders (rs7901525 effect allele A vs C): 2.4
- coef, gastrointestinal disorders (rs7901525 effect allele A vs C): 0.8865
- HR, gastrointestinal disorders (rs7902331 effect allele T vs C): 2.4
- coef, gastrointestinal disorders (rs7902331 effect allele T vs C): 0.8596
- HR, gastrointestinal disorders (rs7916194 effect allele T vs A): 2.5
- coef, gastrointestinal disorders (rs7916194 effect allele T vs A): 0.9034
- HR, gastrointestinal disorders (rs7917549 effect allele A vs G): 2.4
- coef, gastrointestinal disorders (rs7917549 effect allele A vs G): 0.8864
- HR, gastrointestinal disorders (rs7919509 effect allele C vs T): 2.5
- coef, gastrointestinal disorders (rs7919509 effect allele C vs T): 0.9034
- Coefficient, genetic association with gastrointestinal disorders (rs9349955 chr 6, EA T vs NEA C): −0.633
- HR (hazard ratio), genetic association with gastrointestinal disorders (rs9349955 chr 6, EA T vs NEA C): 0.53
- Coefficient, genetic association with gastrointestinal disorders (rs9358044 chr 6, EA T vs NEA A): −0.610
- HR (hazard ratio), genetic association with gastrointestinal disorders (rs9358044 chr 6, EA T vs NEA A): 0.54
- Coefficient, genetic association with gastrointestinal disorders (rs9382993 chr 6, EA C vs NEA T): −0.636
- HR (hazard ratio), genetic association with gastrointestinal disorders (rs9382993 chr 6, EA C vs NEA T): 0.53
- HR, gastrointestinal disorders (rs9423893 effect allele A vs G): 2.4
- coef, gastrointestinal disorders (rs9423893 effect allele A vs G): 0.8599
- Coefficient, genetic association with gastrointestinal disorders (rs9476616 chr 6, EA G vs NEA C): −0.607
- HR (hazard ratio), genetic association with gastrointestinal disorders (rs9476616 chr 6, EA G vs NEA C): 0.55
- Coefficient, genetic association with gastrointestinal disorders [1]: 0.934
- HR (hazard ratio), genetic association with gastrointestinal disorders [1]: 2.55
- HR, gastrointestinal disorders [2]: 2.5
- coef, gastrointestinal disorders [2]: 0.9342
- HR, gastrointestinal disorders [3]: 2.5
- coef, gastrointestinal disorders [3]: 0.902
- HR, gastrointestinal disorders [4]: 2.4
- coef, gastrointestinal disorders [4]: 0.8718
- Coefficient, genetic association with gastrointestinal disorders [5]: −0.594
- HR (hazard ratio), genetic association with gastrointestinal disorders [5]: 0.55
- HR, gastrointestinal disorders [6]: 2.4
- coef, gastrointestinal disorders [6]: 0.8843
- HR, gastrointestinal disorders [7]: 2.4
- coef, gastrointestinal disorders [7]: 0.8594
- HR, gastrointestinal disorders [8]: 2.4
- coef, gastrointestinal disorders [8]: 0.8895
- Coefficient, genetic association with gastrointestinal disorders [9]: 0.917
- HR (hazard ratio), genetic association with gastrointestinal disorders [9]: 2.50
- HR, gastrointestinal disorders [10]: 2.5
- coef, gastrointestinal disorders [10]: 0.9168
- Coefficient, genetic association with gastrointestinal disorders [11]: 0.921
- HR (hazard ratio), genetic association with gastrointestinal disorders [11]: 2.51
- HR, gastrointestinal disorders [12]: 2.5
- coef, gastrointestinal disorders [12]: 0.9206
- Coefficient, genetic association with gastrointestinal disorders [13]: 0.921
- HR (hazard ratio), genetic association with gastrointestinal disorders [13]: 2.51
- HR, gastrointestinal disorders [14]: 2.5
- coef, gastrointestinal disorders [14]: 0.9206
- HR, gastrointestinal disorders [15]: 2.4
- coef, gastrointestinal disorders [15]: 0.8657
- HR, gastrointestinal disorders [16]: 2.4
- coef, gastrointestinal disorders [16]: 0.8665
- Coefficient, genetic association with gastrointestinal disorders [17]: −0.632
- HR (hazard ratio), genetic association with gastrointestinal disorders [17]: 0.53
- Coefficient, genetic association with gastrointestinal disorders [18]: 0.921
- HR (hazard ratio), genetic association with gastrointestinal disorders [18]: 2.51
- HR, gastrointestinal disorders [19]: 2.5
- coef, gastrointestinal disorders [19]: 0.9207
- Coefficient, genetic association with gastrointestinal disorders [20]: 0.917
- HR (hazard ratio), genetic association with gastrointestinal disorders [20]: 2.50
- HR, gastrointestinal disorders [21]: 2.5
- coef, gastrointestinal disorders [21]: 0.9167
- HR, gastrointestinal disorders [22]: 2.4
- coef, gastrointestinal disorders [22]: 0.8656
- HR, gastrointestinal disorders [23]: 2.4
- coef, gastrointestinal disorders [23]: 0.8864
